*1 amine or outer side, *2 acyl side, *3 side chain or, on linkers, in order; H or OH if unused. Where a SMILES comes first, the peptide text is derived from it. [ ]: non-standard residue; d: D form. The star is where a group is joined. Sta = CC(C)C[C@H](N)[C@@H](O)CC(=O)O; Isovaleryl = CC(C)CC(=O)*; CO = O=C([*:1])[*:2]
Tests used:
BTMD-SKI-1 = molecular target: T1, BTMD-SKI-1 (Homo sapiens, UniProt Q14703); test: biochemical; assay type: biochemical
T1 sequence (Q14703 187-997 limits assumed): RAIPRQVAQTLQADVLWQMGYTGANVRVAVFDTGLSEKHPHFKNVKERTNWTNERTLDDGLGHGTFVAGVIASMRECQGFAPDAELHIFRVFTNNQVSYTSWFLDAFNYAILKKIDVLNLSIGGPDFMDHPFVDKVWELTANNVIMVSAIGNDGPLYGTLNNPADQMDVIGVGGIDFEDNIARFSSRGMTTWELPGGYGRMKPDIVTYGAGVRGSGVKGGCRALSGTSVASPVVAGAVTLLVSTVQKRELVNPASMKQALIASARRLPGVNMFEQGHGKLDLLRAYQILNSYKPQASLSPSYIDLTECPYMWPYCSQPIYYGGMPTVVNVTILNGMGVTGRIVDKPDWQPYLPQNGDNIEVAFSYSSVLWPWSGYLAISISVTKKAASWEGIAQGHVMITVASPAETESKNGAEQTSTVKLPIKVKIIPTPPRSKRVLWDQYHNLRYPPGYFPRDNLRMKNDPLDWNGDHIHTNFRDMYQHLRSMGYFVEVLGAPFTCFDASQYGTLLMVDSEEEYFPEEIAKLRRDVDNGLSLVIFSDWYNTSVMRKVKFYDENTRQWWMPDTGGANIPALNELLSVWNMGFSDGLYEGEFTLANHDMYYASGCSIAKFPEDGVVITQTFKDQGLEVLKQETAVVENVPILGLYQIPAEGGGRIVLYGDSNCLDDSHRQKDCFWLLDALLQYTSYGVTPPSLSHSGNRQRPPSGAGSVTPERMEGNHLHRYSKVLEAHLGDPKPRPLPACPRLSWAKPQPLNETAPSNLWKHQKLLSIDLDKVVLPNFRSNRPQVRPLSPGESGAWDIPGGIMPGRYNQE
T1 sequence (Q14703 17-137 partner limits assumed): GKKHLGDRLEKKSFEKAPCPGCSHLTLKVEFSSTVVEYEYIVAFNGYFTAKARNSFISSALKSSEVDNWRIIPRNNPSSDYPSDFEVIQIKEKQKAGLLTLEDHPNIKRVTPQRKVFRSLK

SKI-1 = molecular target: T2, SKI-1 (Homo sapiens, UniProt Q14703); assay type: cell-based; design: The VV recombinant of full-length hSKI-1 has been described (10); expressed in transfected cells; host or cells: COS-7 cells co-infected with vv:BDNF and vv:SKI-1 (with vv:WT, vv:PIT or vv:PDX)
T2 sequence (Q14703 187-1052): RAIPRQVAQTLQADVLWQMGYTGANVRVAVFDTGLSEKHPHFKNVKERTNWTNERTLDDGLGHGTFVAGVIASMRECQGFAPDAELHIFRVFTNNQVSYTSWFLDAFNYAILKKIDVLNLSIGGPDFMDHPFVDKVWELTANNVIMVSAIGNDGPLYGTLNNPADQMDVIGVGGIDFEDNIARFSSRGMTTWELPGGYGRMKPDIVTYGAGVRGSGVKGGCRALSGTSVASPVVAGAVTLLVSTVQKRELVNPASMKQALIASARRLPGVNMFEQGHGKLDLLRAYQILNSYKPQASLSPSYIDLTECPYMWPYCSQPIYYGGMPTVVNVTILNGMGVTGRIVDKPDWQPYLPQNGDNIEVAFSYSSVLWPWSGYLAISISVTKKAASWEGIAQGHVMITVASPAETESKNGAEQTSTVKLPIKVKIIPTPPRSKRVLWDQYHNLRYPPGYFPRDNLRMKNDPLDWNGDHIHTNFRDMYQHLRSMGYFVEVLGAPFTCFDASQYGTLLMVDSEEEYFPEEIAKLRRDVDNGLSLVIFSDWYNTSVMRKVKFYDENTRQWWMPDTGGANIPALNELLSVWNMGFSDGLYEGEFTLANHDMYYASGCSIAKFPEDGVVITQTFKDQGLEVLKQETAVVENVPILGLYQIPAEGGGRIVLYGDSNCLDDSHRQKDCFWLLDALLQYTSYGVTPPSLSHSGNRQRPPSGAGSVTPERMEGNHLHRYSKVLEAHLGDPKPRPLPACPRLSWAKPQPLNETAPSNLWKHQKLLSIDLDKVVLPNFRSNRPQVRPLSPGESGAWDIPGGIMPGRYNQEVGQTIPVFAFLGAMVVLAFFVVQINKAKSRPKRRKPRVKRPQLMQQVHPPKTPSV

[1] = molecular target: T3, peptide X, Q-hSKI-1 (132-142): Abz-VFRSLKYAESD-Y(NO2)-A
T3 chain: XVFRSLKYAESDXA

[2] = molecular target: T4, peptide XI, Q-hSKI-1 (134-142): Abz-RSLKYAESD-Y(NO2)-A
T4 chain: XRSLKYAESDXA

[3] = read-out: Hydrolysis of SREBP-2 peptide (% of control)

CC(=O)N[C@@H](CC(C)C)C(=O)N[C@@H](CC(C)C)C(=O)N[C@H](C=O)CCCNC(=N)N [Leupeptin]
remaining activity at 1000 µM (BTMD-SKI-1; [3]): 100%

CC(C)[C@H](NC(=O)[C@H](CCCNC(=N)N)NC(=O)N[C@@H](Cc1ccccc1)C(=O)O)C(=O)N[C@H](C=O)CCCNC(=N)N [Antipain, antipain] ({Phe-CO}-Arg-Val-Arg-aldehyde)
remaining activity at 1000 µM (BTMD-SKI-1; [3]): 100%

Nc1ccc(CS(=O)(=O)F)cc1 [APMSF, para-aminophenylmethylsulfonyl fluoride]
Hydrolysis of SREBP-2 peptide (% of control) (BTMD-SKI-1): 95 % of control

O=S(=O)([O-])[O-].[Ni+2] [NiSO4]
Hydrolysis of SREBP-2 peptide (% of control) (BTMD-SKI-1): 93 % of control

CC(C)C[C@H](NC(=O)[C@H]1O[C@@H]1C(=O)O)C(=O)NCCCCN=C(N)N [Peptide E-64]
Hydrolysis of SREBP-2 peptide (% of control) (BTMD-SKI-1): 100 % of control

[Cl-].[Cl-].[Mg+2] [MgCl2]
Hydrolysis of SREBP-2 peptide (% of control) (BTMD-SKI-1): 100 % of control

α1-antitrypsin Pittsburgh [α1-PIT]
level of the 28 kDa BDNF product (SKI-1): neither α1-PIT nor α1-PDX affect the level of the 28 kDa product

CC(C)C[C@H](NC(=O)[C@@H](NC(=O)N[C@@H](Cc1ccccc1)C(=O)O)[C@@H]1CCN=C(N)N1)C(=O)N[C@H](C=O)Cc1ccccc1 [Chymostatin]
remaining activity at 1000 µM (BTMD-SKI-1; [3]): 100%

[Cl-].[Cl-].[Co+2] [CoCl2]
Hydrolysis of SREBP-2 peptide (% of control) (BTMD-SKI-1): 100 % of control

Cc1ccc(S(=O)(=O)N[C@@H](Cc2ccccc2)C(=O)CCl)cc1 [TPCK]
Hydrolysis of SREBP-2 peptide (% of control) (BTMD-SKI-1): 71 % of control

CC(C)CC(=O)N[C@H](C(=O)N[C@H](C(=O)N[C@@H](CC(C)C)[C@@H](O)CC(=O)N[C@@H](C)C(=O)N[C@@H](CC(C)C)[C@@H](O)CC(=O)O)C(C)C)C(C)C [Pepstatin, pepstatin] (Isovaleryl-VV[Sta]A[Sta]-OH)
remaining activity at 100 µM (BTMD-SKI-1; [3]): 97%

Cc1ccc(S(=O)(=O)NC(CCCCN)C(=O)CCl)cc1 (stereo not drawn) [TLCK]
Hydrolysis of SREBP-2 peptide (% of control) (BTMD-SKI-1): 100 % of control

O=C(O)CN(CCOCCOCCN(CC(=O)O)CC(=O)O)CC(=O)O [EGTA]
Hydrolysis of SREBP-2 peptide (% of control) (BTMD-SKI-1): 15 % of control

O=S(=O)([O-])[O-].[Zn+2] [ZnSO4]
Hydrolysis of SREBP-2 peptide (% of control) (BTMD-SKI-1): 0 % of control

cystatin
Hydrolysis of SREBP-2 peptide (% of control) (BTMD-SKI-1): 100 % of control

O=S(=O)([O-])[O-].[Cu+2] [CuSO4]
Hydrolysis of SREBP-2 peptide (% of control) (BTMD-SKI-1): 0 % of control

O[C@H](CS)[C@H](O)CS (racemic) [Dithiothreitol]
remaining activity at 10000 µM (BTMD-SKI-1; [3]): 92%

B1: soya bean trypsin inhibitor (protein, UniProt P01070 25-205, looked up)
Trypsin inhibitor A: DFVLDNEGNPLENGGTYYILSDITAFGGIRAAPTGNERCPLTVVQSRNELDKGIGTIISSPYRIRFIAEGHPLSLKFDSFAVIMLCVGIPTEWSVVEDLPEGPAVKIGENKDAMDGWFRLERVSDDEFNNYKLVFCPQQAEDDKCGDIGISIDHDDGTRRLVVSKNKPLVVQFQKLDKESL
Hydrolysis of SREBP-2 peptide (% of control) (BTMD-SKI-1): 100 % of control

B2: proBDNF: 32 kDa human pro-brain-derived neurotrophic factor, precursor substrate (protein, UniProt P23560 19-247, looked up)
pro-form: APMKEANIRGQGGLAYPGVRTHGTLESVNGPKAGSRGLTSLADTFEHVIEELLDEDQKVRPNEENNKDADLYTSRVMLSSQVPLEPPLLFLLEEYKNYLDAANMSMRVRRHSDPARRGELSVCDSISEWVTAADKKTAVDMSGGTVTVLEKVPVSKGQLKQYFYETKCNPMGYTKEGCRGIDKRHWNSQCRTTQSYVRALTMDSKKRIGWRFIRIDTSCVCTLTIKRGR
modifications: pro-form
notes: 32 kDa human pro-brain-derived neurotrophic factor, precursor substrate
intracellular cleavage of precursor by SKI-1 (SKI-1): could be cleaved intracellularly by SKI-1

B3: 98 kDa shed form of SKI-1 (sSKI-1) (protein)
chain: RAIPRQVAQTLQADVLWQMGYTGANVRVAVFDTGLSEKHPHFKNVKERTNWTNERTLDDGLGHGTFVAGVIASMRECQGFAPDAELHIFRVFTNNQVSYTSWFLDAFNYAILKKIDVLNLSIGGPDFMDHPFVDKVWELTANNVIMVSAIGNDGPLYGTLNNPADQMDVIGVGGIDFEDNIARFSSRGMTTWELPGGYGRMKPDIVTYGAGVRGSGVKGGCRALSGTSVASPVVAGAVTLLVSTVQKRELVNPASMKQALIASARRLPGVNMFEQGHGKLDLLRAYQILNSYKPQASLSPSYIDLTECPYMWPYCSQPIYYGGMPTVVNVTILNGMGVTGRIVDKPDWQPYLPQNGDNIEVAFSYSSVLWPWSGYLAISISVTKKAASWEGIAQGHVMITVASPAETESKNGAEQTSTVKLPIKVKIIPTPPRSKRVLWDQYHNLRYPPGYFPRDNLRMKNDPLDWNGDHIHTNFRDMYQHLRSMGYFVEVLGAPFTCFDASQYGTLLMVDSEEEYFPEEIAKLRRDVDNGLSLVIFSDWYNTSVMRKVKFYDENTRQWWMPDTGGANIPALNELLSVWNMGFSDGLYEGEFTLANHDMYYASGCSIAKFPEDGVVITQTFKDQGLEVLKQETAVVENVPILGLYQIPAEGGGRIVLYGDSNCLDDSHRQKDCFWLLDALLQYTSYGVTPPSLSHSGNRQRPPSGAGSVTPERMEGNHLHRYSKVLEAHLGDPKPRPLPACPRLSWAKPQPLNETAPSNLWKHQKLLSIDLDKVVLPNFRSNRPQVRPLSPGESGAWDIPGGIMPGRYNQ
Km(app) [1]: 31.3 µM | Vmax(app) [1]: 34 µmol/h | Vmax(app)/Km(app) [1]: 1.1 h^-1L^-1 | cleavage of quenched fluorogenic peptide (mass spectrometry) [1]: both peptides were cleaved at the RSLK↓ (SEQ. ID. NO. 100) site by shed SKI-1 derived from HK293 cell transfects, but not by medium obtained from HK293 empty vector transfectants | Km(app) [2]: 8.7 µM | Vmax(app) [2]: 56.9 µmol/h | Vmax(app)/Km(app) [2]: 6.5 h^-1L^-1 | cleavage of quenched fluorogenic peptide (mass spectrometry) [2]: both peptides were cleaved at the RSLK↓ (SEQ. ID. NO. 100) site by shed SKI-1 derived from HK293 cell transfects, but not by medium obtained from HK293 empty vector transfectants
